In patent publication US20120202822A1, “COMBINATION” (priority 2009, published 2012):
Each block holds one compound with its values, some of them ahead of it.

Columns and labels:
Test in all cases: Fixed Ratio Drug Combination Assay, cell proliferation (CellTiter Glo)
Format in all cases: cell-based, human
HT29 = details: for Ymin/T0: 72 hours; for IC50: Homo sapiens, HT-29, 72 hours, read-out: gIC50
Description: (§1) Combination drug tests with Compounds A and B were conducted using a panel of cell lines from human colon cancers (n=25) (Table 1). Cell lines were purchased commercially [from ATCC (Manassas, Va., USA) or DSMZ (Braunschweig, Germany)] and grown in RPMI-1640 supplemented with 2 mM glutamine, 1 mM sodium pyruvate and 10% fetal bovine serum and maintained at 37° C. and 5% CO2 in a humid incubator.
(§2) The dilution design of the Fixed Ratio Drug Combination Assay can be seen in FIG. 1. First, the test compounds were prepared as 10 mM stocks in 100% dimethyl sulfoxide (DMSO). Further dilutions of the compounds were made with DMSO. The first test compound (designated as Compound A) is diluted horizontally in a 96 well microtiter plate in rows B-E using a 3-fold dilution series for 10 dilution points. A second test compound (designated as Compound B) is diluted horizontally in a separate 96 well microtiter plate in rows D-G using a 3-fold dilution series for 10 dilution points. The two compounds are combined using equal volumes from each drug plate into cell culture media. […] Compound A is individually titrated in rows B and C, while only Compound B is dosed in rows F and G of the plate. An additional 1:10 dilution of the drugs is performed in cell culture media prior to addition to the cells. Drug addition to the cells results in a further 1:2 dilution of drugs. The total dilution of the drug plate to the cells is […]. The final dosing concentration range for Compound B was 0.1-1000.0 nM and was 0.5-10000.0 nM for Compound A. The positive control consists of culture media with DMSO at 0.1% and cells and no drug. The negative control consists of culture media with DMSO at 0.1%. solution.
(§3) Assays were performed in 96 well microtiter plates with appropriate seeding densities estimated from previous studies of each cell line. Following dosing, the cell lines are incubated at 37° C., 5% CO2 in humid air for 72 hours. Cell proliferation was measured using the CellTiter Glo (Promega Corporation, Madison, Wis., USA) reagent according to the manufacturer's protocol. The plates are treated with CellTiter Glo solution and are analyzed for RLU (relative light units) using a Molecular Devices SpectraMax M5 (Sunnyvale, Calif., USA) plate reader.
(§4) Results are expressed as a percentage of the number of cells present at the time of compound addition value (T0) and plotted against compound(s) concentration. The percent intensity values were used in model 205 of the IDBS XLfit plug-in for Microsoft Excel to calculate gIC50 values using a 4 parameter logistical fit. Background correction is made by subtraction of values from wells containing no cells. The midpoint of the growth window (the gIC50) falls half way between the number of cells at the time of compound addition and the growth of control cells treated with DMSO at 72 hrs. The number of cells at time zero is divided from the intensity value at the bottom of the response curve (Ymin) to generate a measure for cell death (Ymin/T0). A value below 1 for Ymin/T0 indicates stronger potency with the treatment when compared to higher values. For duplicate assays, all response metrics are averaged for presentation.
(§5) Three independent metrics were used to analyze the combinatorial effects on growth inhibition of Compound B and Compound A. • 1. Excess over Highest Single Agent (EOHSA)—One standard criterion for measuring drug combinatorial effects is analyzing the effects on cell growth inhibition in absolute terms. In this case, the combination of drugs is compared to the more responsive of the two individual treatments (single agent). For each combination experiment, the percent effect relative to the highest single agent for each dose along the curve is generated. This measure of “Excess of Highest Single Agent (EOHSA)” is one of the criteria used for evaluating synergy of drug combinations. […]

LS1034 = details: for Ymin/T0: 72 hours; for IC50: Homo sapiens, LS-1034, 72 hours, read-out: gIC50
Description: as §1, §2, §3, §4, §5

SW48 = details: 72 hours; for IC50: Homo sapiens, read-out: gIC50
Description: as §1, §2, §3, §4, §5

COLO205 = details: for Ymin/T0: 72 hours; for IC50: Homo sapiens, COLO 205, 72 hours, read-out: gIC50
Description: as §1, §2, §3, §4, §5

HCT8 = details: for Ymin/T0: 72 hours; for IC50: Homo sapiens, HCT-8, 72 hours, read-out: gIC50
Description: as §1, §2, §3, §4, §5

SW1463 = details: 72 hours; for IC50: Homo sapiens, read-out: gIC50
Description: as §1, §2, §3, §4, §5

HCT116 = details: for Ymin/T0: 72 hours; for IC50: Homo sapiens, HCT-116, 72 hours, read-out: gIC50
Description: as §1, §2, §3, §4, §5

SW948 = details: 72 hours; for IC50: Homo sapiens, read-out: gIC50
Description: as §1, §2, §3, §4, §5

SW837 = details: 72 hours; for IC50: Homo sapiens, read-out: gIC50
Description: as §1, §2, §3, §4, §5

HCC2998 = details: for Ymin/T0: 72 hours; for IC50: Homo sapiens, HCC 2998, 72 hours, read-out: gIC50
Description: as §1, §2, §3, §4, §5

KM12 = details: 72 hours; for IC50: Homo sapiens, read-out: gIC50
Description: as §1, §2, §3, §4, §5

SW1417 = details: 72 hours; for IC50: Homo sapiens, read-out: gIC50
Description: as §1, §2, §3, §4, §5

LS174T = details: 72 hours; for IC50: Homo sapiens, read-out: gIC50
Description: as §1, §2, §3, §4, §5

SW403 = details: for Ymin/T0: 72 hours; for IC50: Homo sapiens, SW-403, 72 hours, read-out: gIC50
Description: as §1, §2, §3, §4, §5

COLO320DM = details: 72 hours; for IC50: Homo sapiens, COLO 320DM, read-out: gIC50
Description: as §1, §2, §3, §4, §5

NCIH630 = details: for Ymin/T0: 72 hours; for IC50: Homo sapiens, NCI-H630, 72 hours, read-out: gIC50
Description: as §1, §2, §3, §4, §5

NCIH508 = details: for Ymin/T0: 72 hours; for IC50: Homo sapiens, NCI-H508, 72 hours, read-out: gIC50
Description: as §1, §2, §3, §4, §5

T84 = details: 72 hours; for IC50: Homo sapiens, read-out: gIC50
Description: as §1, §2, §3, §4, §5

DLD1 = details: for Ymin/T0: 72 hours; for IC50: Homo sapiens, DLD-1, 72 hours, read-out: gIC50
Description: as §1, §2, §3, §4, §5

NCIH716 = details: for Ymin/T0: 72 hours; for IC50: Homo sapiens, NCI-H716, 72 hours, read-out: gIC50
Description: as §1, §2, §3, §4, §5

SW480 = details: 72 hours; for IC50: Homo sapiens, read-out: gIC50
Description: as §1, §2, §3, §4, §5

IC50 (HT29): 17.2 nM
IC50 (SW48): > 10000 nM
IC50 (COLO205): 7.3 nM
IC50 (HCT8): > 10000 nM
IC50 (SW1463): > 10000 nM
IC50 (HCT116): > 10000 nM
IC50 (SW948): > 10000 nM
IC50 (SW837): > 10000 nM
IC50 (HCC2998): 2400 nM
IC50 (SW1417): 246 nM
IC50 (SW403): > 10000 nM
IC50 (COLO320DM): > 10000 nM
IC50 (DLD1): 199 nM
IC50 (SW480): > 10000 nM
Compound: CC(C)(C)c1nc(-c2cccc(NS(=O)(=O)c3c(F)cccc3F)c2F)c(-c2ccnc(N)n2)s1 [Compound A, N-{3-[5-(2-amino-4-pyrimidinyl)-2-(1,1-dimethylethyl)-1,3-thiazol-4-yl]-2-fluorophenyl}-2,6-difluorobenzenesulfonamide]
Ymin/T0 (HT29): 4.0
Ymin/T0 (LS1034): 1.9
IC50 (LS1034): > 10000 nM
Ymin/T0 (SW48): 4.7
Ymin/T0 (COLO205): 1.2
Ymin/T0 (HCT8): 9.2
Ymin/T0 (SW1463): 1.9
Ymin/T0 (HCT116): 9.2
Ymin/T0 (SW948): 1.5
Ymin/T0 (SW837): 2.3
Ymin/T0 (HCC2998): 2.8
Ymin/T0 (KM12): 8.8
IC50 (KM12): > 10000 nM
Ymin/T0 (SW1417): 1.1
Ymin/T0 (LS174T): 7.0
IC50 (LS174T): > 10000 nM
Ymin/T0 (SW403): 2.7
Ymin/T0 (COLO320DM): 4.9
Ymin/T0 (NCIH630): 1.9
IC50 (NCIH630): 5000 nM
Ymin/T0 (NCIH508): 2.1
IC50 (NCIH508): 366 nM
Ymin/T0 (T84): 2.0
IC50 (T84): > 10000 nM
Ymin/T0 (DLD1): 6.7
Ymin/T0 (NCIH716): 1.3
IC50 (NCIH716): > 10000 nM
Ymin/T0 (SW480): 2.9

IC50 (HT29): 7.4 nM
IC50 (SW48): 2.6 nM
IC50 (COLO205): 12 nM
IC50 (HCT8): 8.4 nM
IC50 (SW1463): 8.2 nM
IC50 (HCT116): 34.2 nM
IC50 (SW948): 0.3 nM
IC50 (SW837): 6.4 nM
IC50 (HCC2998): 4.7 nM
IC50 (SW1417): 1.4 nM
IC50 (SW403): 1.5 nM
IC50 (COLO320DM): 4.7 nM
IC50 (DLD1): 20.5 nM
IC50 (SW480): 5.4 nM
Compound: COc1ncc(-c2ccc3nccc(-c4ccnnc4)c3c2)cc1NS(=O)(=O)c1ccc(F)cc1F [Compound B, 2,4-difluoro-N-{2-(methyloxy)-5-[4-(4-pyridazinyl)-6-quinolinyl]-3-pyridinyl}benzenesulfonamide]
Ymin/T0 (HT29): 2.0
Ymin/T0 (LS1034): 0.5
IC50 (LS1034): 1.4 nM
Ymin/T0 (SW48): 0.4
Ymin/T0 (COLO205): 1.4
Ymin/T0 (HCT8): 1.6
Ymin/T0 (SW1463): 0.9
Ymin/T0 (HCT116): 4.1
Ymin/T0 (SW948): 0.4
Ymin/T0 (SW837): 0.8
Ymin/T0 (HCC2998): 0.9
Ymin/T0 (KM12): 1.4
IC50 (KM12): 22.1 nM
Ymin/T0 (SW1417): 1.3
Ymin/T0 (LS174T): 0.8
IC50 (LS174T): 34.1 nM
Ymin/T0 (SW403): 0.5
Ymin/T0 (COLO320DM): 1.5
Ymin/T0 (NCIH630): 0.9
IC50 (NCIH630): 18.3 nM
Ymin/T0 (NCIH508): 0.5
IC50 (NCIH508): 1.2 nM
Ymin/T0 (T84): 0.7
IC50 (T84): 6 nM
Ymin/T0 (DLD1): 1.8
Ymin/T0 (NCIH716): 0.7
IC50 (NCIH716): 1.1 nM
Ymin/T0 (SW480): 1.1
